How the values were obtained:
cortical neuron cultures = test: Inhibition of evoked activity (action potential trains evoked by current injection) in cortical neuron cultures; type: cell-based; conditions: FIG. 5
Protocol: Trains of action potentials were evoked by 30 pA current injections.
Simultaneous patch clamp studies are conducted to determine cellular responses in (1) cells expressing both opsin and luciferase (i.e. both components in cis) and (2) cells expressing […] (i.e. both components in trans). As an alternative to co-infection, one can also deliver luciferase and inhibitory opsin together as a fusion protein. Various molecular strategies can also be employed (such as adding dimerizing or transmembrane domains) to facilitate co-localization of the luciferase and inhibitory opsin to the cell membrane.

neuron = test: Inhibition of evoked spikes in a neuron expressing eNpHR3.0-Nanolantern; type: cell-based; conditions: CTZ added

Molecule | effect on firing rate in control (uninfected) neurons (cortical neuron cultures) | luminescence signal during inhibition of evoked activity (neuron; FIG. 8 (top)) | evoked action potentials after CTZ (neuron; sub-threshold depolarizing current injection, FIG. 8)
Oc1ccc(Cc2nc3c(Cc4ccccc4)nc(-c4ccc(O)cc4)cn3c2O)cc1 [CTZ, Coelenterazine, reference compound] | did not have any significant effect | – | –
eNpHR3.0-Nanolantern: Fusion cassette of enhanced halorhodopsin eNpHR3.0 and Nanolantern, amino acid sequence SEQ ID NO: 11 | – | increase in luminescence signal | completely attenuate evoked action potentials
